Measurements: US20060234956A1, “Dicarboxylic acid ester derivatives of ginsenoside, pharmaceutical preparations containing the same, and preparation thereof” (Amersen Bioscience International, Inc., priority 2005, published 2006)
Read-outs that look alike come from different tables or passages of the source.

How the values were obtained:
Format in all cases: cell-based
[1] = tested on: OVCAR-3 (Adenocarcinoma, ovary, human); test: Anti-cancer activity assay, alamarBlue cell growth, OVCAR-3
Source text: (§1) Four human tumor cell lines, OVCAR-3 (Adenocarcinoma, ovary, human), A549 (Carcinoma, lung, human), HT-29 (Adenocarcinoma, colon, moderately well-differentiated grade II, human) and MCF-7 (Breast adenocarcinoma, pleural effusion, human) were chosen in the experiments., which were obtained from American Type Culture Collection (ATCC) under codes of ATCC HTB-161, ATCC CCL-185, ATC HTB-38 and ATCC HTB-22, respectively. The culture medium used for OVCAR-3 was RPMI 1640 medium with 20% fetal bovine serum, which was supplemented with 0.01 mg bovine insulin per ml and 1% Antibiotice-Antimycotic. The culture medium used for A549 was F-12K nutrient mixture (Kaighn's Modification), 90%; and fetal bovine serum 10%. The culture medium used for HT-29 was McCoy's 5A medium, 90%; and fetal bovine serum, 10%. The culture medium used for MCF-7 was Minimum Essential Medium, 90%; and fetal bovine serum, 10%.
CK was dissolved in a mixed solvent of ethanol and Cremophor® RH40 (ethanol:Cremophor® RH40=1:1), and then diluted with sterile distilled water to obtain test solutions having CK concentrations of 10000, 1000, 100, 10, 1 μg/ml in 5% ethanol and 5% Cremophor® RH40.
(§2) Aliquots of 100 μl of cell suspension (about 1.0˜3.0×10^3/well) were placed in 96-well microtiter plates in an atmosphere of 5% CO2 at 37° C. After 24 hours, 100 μl of growth medium and 2 μl of test solution or vehicle (5% ethanol and 5% Cremophor® RH40) were added per respectively per well in duplicate for an additional 72-hour incubation. Thus, the final concentration of vehicle was 0.05%. The test compound, CK, was evaluated at concentrations of 100, 10, 1, 0.1, 0.01 μg/ml. At the end of the incubation, 20 μl of alamarBlue 90% reagent was added to each well for another 6-hour incubation before detection of cell viability by fluorescent intensity. Fluorescent intensity was measured using a SPECTRAfluor Plus plate reader with excitation at 530 nm and emission at 590 nm.
The tumor cell lines used were the same as in Experiment 1.
CK succinate and CK glutarate derivatives were directly dissolved in the phosphate buffered saline (PBS) having a pH of 7.4, and then diluted with sterile distilled water to obtain test solutions having concentrations of the CK derivative of 2000, 200, 20, 2, 0.2 μg/ml in 40% PBS
as §2, with “(about 5.0×10^3/well)” for “(about 1.0˜3.0×10^3/well)”, “hours, 90” for “hours, 100”, “and 10” for “and 2”, “vehicle (40% PBS, pH 7.4)” for “vehicle (5% ethanol and 5% Cremophor® RH40)”, “compound, CK derivative,” for “compound, CK,”
The measured results were calculated according to the following formulas: • PG (Percent Growth): PG(%)=100%×(Mean Ftest-Mean Ftime0)/(Mean Fctrl-Mean Ftime0) • If (Mean Ftest-Mean Ftime0)<0, then PG(%)=100%×(Mean Ftest-Mean Ftime0)/(Mean Ftime0-Mean Fblank) wherein • Mean Ftime0=The average of two measured fluorescent intensities of reduced alamarBlue at the time just before exposure of cells to the test compound; • Mean Ftest=The average of two measured fluorescent intensities of alamarBlue after 72-hour exposure of cells to the test compound; • Mean Fctrl=The average of two measured fluorescent intensities of alamarBlue after 72-hour incubation without the test compound; • Mean Fblank=The average of two measured fluorescent intensities of alamarBlue in medium without cells after 72-hour incubation. […]

[2] = tested on: HT-29 (Adenocarcinoma, colon, moderately well-differentiated grade II, human); test: Anti-cancer activity assay, alamarBlue cell growth, HT-29; conditions: 72-hour incubation, CK in 5% ethanol/5% Cremophor RH40, derivatives in PBS pH 7.4, read-out: IC50 (μM) of CK, CK succinate and CK glutarate derivatives, HT-29
Source text: as §1, with “The culture medium used for A549 was F-12K nutrient mixture (Kaighn's Modification), 90%; and fetal bovine serum 10%. The culture medium used for HT-29 was McCoy's 5A medium, 90%; and fetal bovine serum, 10%. The culture medium used for MCF-7 was Minimum Essential Medium, 90%; and fetal bovine serum, 10%.” left out
(§3) Aliquots of 100 μl of cell suspension (about 1.0˜3.0×10^3/well) were placed in 96-well microtiter plates in an atmosphere of 5% CO2 at 37° C. […] The test compound, CK, was evaluated at concentrations of 100, 10, 1, 0.1, 0.01 μg/ml. […] Fluorescent intensity was measured using a SPECTRAfluor Plus plate reader with excitation at 530 nm and emission at 590 nm. […]
as §3, with “5.0×10^3/well)” for “1.0˜3.0×10^3/well)”, “CK derivative,” for “CK,”

[3] = tested on: MCF-7 (Breast adenocarcinoma, pleural effusion, human); test: Anti-cancer activity assay, alamarBlue cell growth, MCF-7; conditions: 72-hour incubation, CK in 5% ethanol/5% Cremophor RH40, derivatives in PBS pH 7.4, read-out: IC50 (μM) of CK, CK succinate and CK glutarate derivatives, MCF-7
Source text: as §1, with “The culture medium used for A549 was F-12K nutrient mixture (Kaighn's Modification), 90%; and fetal bovine serum 10%. The culture medium used for HT-29 was McCoy's 5A medium, 90%; and fetal bovine serum, 10%. The culture medium used for MCF-7 was Minimum Essential Medium, 90%; and fetal bovine serum, 10%.” left out
as §3
as §3, with “5.0×10^3/well)” for “1.0˜3.0×10^3/well)”, “CK derivative,” for “CK,”

[4] = tested on: A549 (Carcinoma, lung, human); test: Anti-cancer activity assay, alamarBlue cell growth, A549; conditions: 72-hour incubation, CK in 5% ethanol/5% Cremophor RH40, derivatives in PBS pH 7.4, read-out: IC50 (μM) of CK, CK succinate and CK glutarate derivatives, A549
Source text: as §1, with “The culture medium used for A549 was F-12K nutrient mixture (Kaighn's Modification), 90%; and fetal bovine serum 10%. The culture medium used for HT-29 was McCoy's 5A medium, 90%; and fetal bovine serum, 10%. The culture medium used for MCF-7 was Minimum Essential Medium, 90%; and fetal bovine serum, 10%.” left out
as §3
as §3, with “5.0×10^3/well)” for “1.0˜3.0×10^3/well)”, “CK derivative,” for “CK,”

[5] = OVCAR-3 tumor cell, Table 4, read-out: IC50 (μM) of ginsenosides and it's succinate derivatives on OVCAR-3 tumor cell
[6] = OVCAR-3, 72-hour incubation, alamarBlue, CK in 5% ethanol/5% Cremophor RH40, derivatives in PBS pH 7.4, read-out: IC50 (μM) of CK, CK succinate and CK glutarate derivatives, OVCAR-3

IC50 [1, 5] | IC50 [1, 6] | Compound | further results
42.8 µM |  | CC(C)=CCCC(C)(O)C1CCC2(C)C1C(OC(=O)CCC(=O)O)CC1C3(C)CCC(O)C(C)(C)C3CCC12C (stereo not shown) [GS41, PPD-12-monosuccinate] | 
 | 89.9 µM | CC(C)=CCCC(C)(OC1OC(COC(=O)CCC(=O)O)C(O)C(OC(=O)CCC(=O)O)C1O)C1CCC2(C)C1C(O)CC1C3(C)CCC(O)C(C)(C)C3CCC12C (stereo not shown) [GS-9, CK-3′,6,-disuccinate] | 
 | 19.3 µM | CC(C)=CCC[C@](C)(O[C@@H]1O[C@H](CO)[C@@H](O)[C@H](OC(=O)CCC(=O)O)[C@H]1O)[C@H]1CC[C@]2(C)[C@@H]1[C@H](O)C[C@@H]1[C@@]3(C)CC[C@H](O)C(C)(C)[C@@H]3CC[C@]12C [GS-8, CK-3′-monosuccinate] | IC50 [2]: 71.9 µM; IC50 [3]: 53.9 µM; IC50 [4]: 31.8 µM
26.6 µM |  | CC(C)=CCCC(C)(O)C1CCC2(C)C1C(OC(=O)CCC(=O)O)CC1C3(C)CCC(OC(=O)CCC(=O)O)C(C)(C)C3C(O)CC12C (stereo not shown) [GS52, PPT-3,12-disuccinate] | 
 | 69.1 µM | CC(C)=CCCC(C)(OC1OC(CO)C(O)C(OC(=O)CCCC(=O)O)C1O)C1CCC2(C)C1C(O)CC1C3(C)CCC(O)C(C)(C)C3CCC12C (stereo not shown) [GS-13, CK-3′-monoglutarate] | 
50.1 µM |  | CC(C)=CCC[C@](C)(O[C@@H]1O[C@H](CO)[C@@H](O)[C@H](O)[C@H]1O)[C@H]1CC[C@]2(C)[C@@H]1[C@H](O)C[C@@H]1[C@@]3(C)CC[C@H](O)C(C)(C)[C@@H]3[C@@H](O)C[C@]12C [GS30, F1, reference compound] | 
 | 79.8 µM | CC(C)=CCCC(C)(OC1OC(COC(=O)CCCC(=O)O)C(O)C(OC(=O)CCCC(=O)O)C1O)C1CCC2(C)C1C(O)CC1C3(C)CCC(O)C(C)(C)C3CCC12C (stereo not shown) [GS-14, CK-3′,6′-diglutarate] | 
 | > 100 µM | CC(C)=CCCC(C)(OC1OC(COC(=O)CCC(=O)O)C(OC(=O)CCC(=O)O)C(OC(=O)CCC(=O)O)C1O)C1CCC2(C)C1C(O)CC1C3(C)CCC(O)C(C)(C)C3CCC12C (stereo not shown) [GS-11, CK-3′,4′,6′-trisuccinate] | 
14.9 µM |  | CC(C)=CCCC(C)(OC1OC(CO)C(O)C(OC(=O)CCC(=O)O)C1O)C1CCC2(C)C1C(O)CC1C3(C)CCC(O)C(C)(C)C3C(O)CC12C (stereo not shown) [GS32, F1-3′-monosuccinate] | 
 | 22.1 µM | CC(C)=CCCC(C)(OC1OC(COC(=O)CCC(=O)O)C(O)C(O)C1O)C1CCC2(C)C1C(O)CC1C3(C)CCC(O)C(C)(C)C3CCC12C (stereo not shown) [GS-6, CK-6′-monosuccinate] | 
30.3 µM |  | CC(C)=CCCC(C)(O)C1CCC2(C)C1C(OC(=O)CCC(=O)O)CC1C3(C)CCC(OC(=O)CCC(=O)O)C(C)(C)C3CCC12C (stereo not shown) [GS42, PPD-3,12-disuccinate] | 
31.2 µM |  | CC(C)=CCCC(C)(O)C1CCC2(C)C1C(OC(=O)CCC(=O)O)CC1C3(C)CCC(O)C(C)(C)C3C(O)CC12C (stereo not shown) [GS51, PPT-12-monosuccinate] | 
47.6 µM |  | CC(C)=CCCC(C)(O)C1CCC2(C)C1C(OC(=O)CCC(=O)O)CC1C3(C)CCC(OC(=O)CCC(=O)O)C(C)(C)C3C(OC(=O)CCC(=O)O)CC12C (stereo not shown) [GS53, PPT-3,6,12-trisuccinate] | 

Compound | IC50 [1, 5] | IC50 [1, 6] | further results
CC(C)=CCCC(C)(O)[C@H]1CC[C@]2(C)[C@@H]1[C@H](O)C[C@@H]1[C@@]3(C)CC[C@H](O)C(C)(C)[C@@H]3CC[C@]12C (stereo in doubt) [GS40, protopanaxadiol, reference compound] | 28.2 µM |  | 
CC(C)=CCC[C@](C)(O)[C@H]1CC[C@]2(C)[C@@H]1[C@H](O)C[C@@H]1[C@@]3(C)CC[C@H](O)C(C)(C)[C@@H]3[C@@H](O)C[C@]12C [GS50, protopanaxatriol, reference compound] | 31.5 µM |  | 
CC(C)=CCC[C@](C)(O[C@@H]1O[C@H](CO)[C@@H](O)[C@H](O)[C@H]1O)[C@H]1CC[C@]2(C)[C@@H]1[C@H](O)C[C@@H]1[C@@]3(C)CC[C@H](O)C(C)(C)[C@@H]3CC[C@]12C [GS-12, 20-O-β-D-glucopyranosyl-protopanaxadiol, reference compound] |  | 2.7 µM | IC50 [2]: 9.3 µM; IC50 [3]: 11.2 µM; IC50 [4]: 17.7 µM
